Measured values published in patent publication US20050165057A1, “Novel piperidine derivative” (priority 2002, published 2005).

Key:
ACAT [1] = target: T1, ACAT (Rattus norvegicus, UniProt O70536); test: Assay of ACAT inhibitory activity in a macrophage derived from rat peritoneal cavity; format: cell-based; details: concentration of compound: 500 nM
T1 construct: The rat peritoneal-derived macrophage was prepared according to the method disclosed in the literature; endogenous in cells; host or cells: rat peritoneal macrophages (primary cells)
T1 sequence (O70536 1-545): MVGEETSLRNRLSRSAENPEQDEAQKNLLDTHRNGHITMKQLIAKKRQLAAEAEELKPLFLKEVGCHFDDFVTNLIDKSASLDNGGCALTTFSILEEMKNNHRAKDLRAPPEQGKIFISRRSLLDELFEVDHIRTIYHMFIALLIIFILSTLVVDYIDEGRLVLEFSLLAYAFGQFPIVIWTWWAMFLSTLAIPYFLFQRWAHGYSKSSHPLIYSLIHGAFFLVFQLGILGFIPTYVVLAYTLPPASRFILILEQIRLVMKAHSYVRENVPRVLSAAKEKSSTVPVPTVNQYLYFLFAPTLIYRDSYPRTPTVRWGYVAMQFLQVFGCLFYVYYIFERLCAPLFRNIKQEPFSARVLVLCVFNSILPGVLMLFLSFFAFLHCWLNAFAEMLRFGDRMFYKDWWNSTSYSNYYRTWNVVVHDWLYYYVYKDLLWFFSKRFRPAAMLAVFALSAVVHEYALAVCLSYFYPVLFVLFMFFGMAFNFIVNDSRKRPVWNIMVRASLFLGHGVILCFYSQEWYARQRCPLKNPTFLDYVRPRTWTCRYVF
Procedure: 2. Assay of ACAT Inhibitory Activity in a Macrophage Derived from Rat Peritoneal Cavity:
The rat peritoneal-derived macrophage was prepared according to the method disclosed in the literature: Biochimica et Biophysica Acta, 1126, 73-80, 1992. The ACAT activity was determined by a modified method of the method disclosed in the above literature: Biochimica et Biophysica Acta, 1126, 73-80, 1992, using radioactive [9, 10-^3H]oleic acid and exogenous cholesterol contained in the liposome which was re-constituted according to the method disclosed in the literature: Biochimica et Biophysica Acta, 1213, 127-134, 1994, and calculated from the radioactivity of the labeled cholesterolyl oleate.

ACAT [2] = test: Assay of ACAT inhibitory activity using Caco-2 cells; format: cell-based, human; details: concentration of compound: 500 nM
Procedure: 1. Assay of ACAT Inhibitory Activity Using Caco-2 Cells Derived from Human Colon Adenocarcinoma:
The measurement of ACAT inhibitory activity using Caco-2 cells was carried out by a modified method of that disclosed in the literature (J. Lipid. Research, 28, 1057-1066, 1987, Jpn. J. Pharmacol., 68, 191-199, 1995), using radioactive [1-^3H]oleic acid as a substrate, and the enzymatic activity was calculated from the radioactivity of the resultant labeled cholesterolyl oleate.

Compound	ACAT inhibitory rate (%) (ACAT [1])	ACAT inhibitory rate (%) (ACAT [2])
COc1cccc(C2(CNC(=O)Nc3c(C(C)C)cc(N)cc3C(C)C)CCN(c3cccc(C)c3)CC2)c1 [Example 12-2, N-{[1-(3-methylphenyl)-4-(3-methoxyphenyl)piperidin-4-yl]methyl}-N′-(4-amino-2,6-diisopropylphenyl)urea]	99	59
COc1cccc(C2(CNC(=O)Nc3c(C(C)C)cc(N)cc3C(C)C)CCN(c3cccc(F)c3)CC2)c1 [Example 12-3, N-{[1-(3-fluorophenyl)-4-(3-methoxyphenyl)piperidin-4-yl]methyl}-N′-(4-amino-2,6-diisopropylphenyl)urea]	99	63
CC(C)c1cc(N)cc(C(C)C)c1NC(=O)NCC1(c2cccc(OCCCNC(=O)CC(F)(F)F)c2)CCN(c2ccccc2)CC1 [Example 11-1, N-{(1-phenyl-4-{3-[3-(2,2,2-trifluoroethyl)carbonylaminopropoxy]phenyl}piperidin-4-yl)methyl}-N′-(4-amino-2,6-diisopropylphenyl)urea]	99	57
